Reference: ChEMBL document CHEMBL3608227, “Synthesis and anti-tubercular activity of 2-nitroimidazooxazines with modification at the C-7 position as PA-824 analogs” (Bioorg Med Chem Lett, 2015)
Values after ≈ are worked out from the molar mass of the structure shown.

These compounds were tested on Mycobacterium tuberculosis (assay: Anti-tubercular activity against Mycobacterium tuberculosis).
Assay type: functional, organism-based

Question: Which IC50 does the source give for `O=[N+]([O-])c1cn2c(n1)OC[C@H](OCc1ccc(OC(F)(F)F)cc1)C2` here?
Answer: 160 nM

Question: With `O=[N+]([O-])c1cn2c(n1)OC[C@@H](OCc1ccc(OC(F)(F)F)cc1)C2` [PRETOMANID] as the compound, how does the IC50 read?
Answer: 900 nM

What follows are compounds tested on Mycobacterium tuberculosis (assay: Potency index, ratio of IC50 for PA-824 to IC50 for test compound against Mycobacterium tuberculosis).
Assay type: functional

Question: `O=[N+]([O-])c1cn2c(n1)OC[C@H](OCc1ccc(OC(F)(F)F)cc1)C2` was tested. Which “Ratio IC50” value did it give?
Answer: 6

These compounds were tested on Mycobacterium tuberculosis (assay: Anti-tubercular activity against Mycobacterium tuberculosis H37Rv incubated at 37 degC by microscopy).
Assay type: functional

Question: `O=[N+]([O-])c1cn2c(n1)O[C@@H](CCOCc1ccc(OC(F)(F)F)cc1)CC2` was tested. Which MIC99 did it give?
Answer: 0.078 µM (≈ 0.0302 µg/mL)

Question: With `O=[N+]([O-])c1cn2c(n1)O[C@H](CCOCc1ccc(OC(F)(F)F)cc1)CC2` as the compound, how does the MIC99 read?
Answer: 0.39 µM (≈ 0.151 µg/mL)

Question: With `CC(C)(C)c1ccc(COCC[C@H]2CCn3cc([N+](=O)[O-])nc3O2)cc1` as the compound, how does the MIC99 read?
Answer: 0.39 µM (≈ 0.14 µg/mL)

Question: With `O=[N+]([O-])c1cn2c(n1)O[C@@H](CCOCc1ccc(Br)cc1)CC2` as the compound, how does the MIC99 read?
Answer: 0.39 µM (≈ 0.149 µg/mL)

Question: For `O=[N+]([O-])c1cn2c(n1)O[C@@H](CCOCc1ccc(Cl)cc1)CC2`, which MIC99 is on record?
Answer: 0.39 µM (≈ 0.132 µg/mL)

Question: For `O=[N+]([O-])c1cn2c(n1)O[C@@H](CCOCc1ccc(C(F)(F)F)cc1)CC2`, which MIC99 is on record?
Answer: 0.195 µM (≈ 0.0724 µg/mL)

Question: For `O=[N+]([O-])c1cn2c(n1)O[C@@H](CCOCc1ccc(-c3ccccc3)cc1)CC2`, which MIC99 is on record?
Answer: 0.195 µM (≈ 0.074 µg/mL)

Question: How did the MIC99 turn out when `O=[N+]([O-])c1cn2c(n1)O[C@@H](CCOc1ccc(OC(F)(F)F)cc1)CC2` was run?
Answer: 0.098 µM (≈ 0.0366 µg/mL)

Question: How did the MIC99 turn out when `O=[N+]([O-])c1cn2c(n1)O[C@@H](CCOc1ccccc1)CC2` was run?
Answer: 3.12 µM (≈ 0.904 µg/mL)

Question: With `O=[N+]([O-])c1cn2c(n1)O[C@@H](CCOc1ccc(Cl)cc1)CC2` as the compound, how does the MIC99 read?
Answer: 0.39 µM (≈ 0.126 µg/mL)

Question: How did the MIC99 turn out when `O=[N+]([O-])c1cn2c(n1)O[C@@H](CCOc1ccc(C(F)(F)F)cc1)CC2` was run?
Answer: 0.195 µM (≈ 0.0697 µg/mL)

Question: With `O=[N+]([O-])c1cn2c(n1)O[C@@H](CCOc1ccc(OCc3ccccc3)cc1)CC2` as the compound, how does the MIC99 read?
Answer: 0.078 µM (≈ 0.0308 µg/mL)

Question: How did the MIC99 turn out when `O=[N+]([O-])c1cn2c(n1)O[C@H](CCOc1ccc(OCc3ccccc3)cc1)CC2` was run?
Answer: 0.078 µM (≈ 0.0308 µg/mL)

Question: Which MIC99 does the source give for `O=[N+]([O-])c1cn2c(n1)O[C@@H](CCOc1ccc(-c3ccccc3)cc1)CC2` here?
Answer: 0.078 µM (≈ 0.0285 µg/mL)

Question: For `O=[N+]([O-])c1cn2c(n1)O[C@@H](CCOc1ccc(-c3ccc(F)cc3)cc1)CC2`, which MIC99 is on record?
Answer: 0.05 µM (≈ 0.0192 µg/mL)

Question: Which MIC99 does the source give for `O=C(OCC[C@H]1CCn2cc([N+](=O)[O-])nc2O1)OCc1ccc(OC(F)(F)F)cc1` here?
Answer: 0.078 µM (≈ 0.0336 µg/mL)

Question: With `O=C(OCC[C@@H]1CCn2cc([N+](=O)[O-])nc2O1)OCc1ccc(OC(F)(F)F)cc1` as the compound, how does the MIC99 read?
Answer: 1.56 µM (≈ 0.673 µg/mL)

Question: How did the MIC99 turn out when `O=C(OCC[C@H]1CCn2cc([N+](=O)[O-])nc2O1)OCc1cccc(OC(F)(F)F)c1` was run?
Answer: 0.78 µM (≈ 0.336 µg/mL)

Question: `O=C(OCC[C@H]1CCn2cc([N+](=O)[O-])nc2O1)OCc1ccccc1OC(F)(F)F` was tested. Which MIC99 did it give?
Answer: 0.39 µM (≈ 0.168 µg/mL)

Question: How did the MIC99 turn out when `O=C(OCC[C@H]1CCn2cc([N+](=O)[O-])nc2O1)OCc1ccc(Cl)cc1` was run?
Answer: 0.195 µM (≈ 0.0744 µg/mL)

Question: For `O=C(OCC[C@H]1CCn2cc([N+](=O)[O-])nc2O1)OCc1ccc(C(F)(F)F)cc1`, which MIC99 is on record?
Answer: 0.39 µM (≈ 0.162 µg/mL)

Question: `O=C(Nc1ccc(Cl)cc1)OCC[C@H]1CCn2cc([N+](=O)[O-])nc2O1` was tested. Which MIC99 did it give?
Answer: 0.195 µM (≈ 0.0715 µg/mL)

Question: How did the MIC99 turn out when `O=C(Nc1ccc(-c2ccc(OC(F)(F)F)cc2)cc1)OCC[C@H]1CCn2cc([N+](=O)[O-])nc2O1` was run?
Answer: 0.195 µM (≈ 0.096 µg/mL)

Question: `O=[N+]([O-])c1cn2c(n1)OC[C@@H](OCc1ccc(OC(F)(F)F)cc1)C2` [PRETOMANID] was tested. Which MIC99 did it give?
Answer: 0.39 µM (≈ 0.14 µg/mL)

The compounds below were run on Mycobacterium tuberculosis (assay: Potency index, ratio of IC50 for PA-824 to IC50 for test compound against Mycobacterium tuberculosis H37Rv).
Assay type: functional

Question: With `O=[N+]([O-])c1cn2c(n1)O[C@@H](CCOCc1ccc(OC(F)(F)F)cc1)CC2` as the compound, how does the “Ratio IC50” value read?
Answer: 5

Question: Which “Ratio IC50” value does the source give for `O=[N+]([O-])c1cn2c(n1)O[C@@H](CCOCc1ccc(-c3ccccc3)cc1)CC2` here?
Answer: 2
